Measurements as given in PubChem BioAssay (NCI).
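Cultured in 96-well plates, cells were exposed to test compound for 48 hours across five concentrations. GI50: concentration for 50% inhibition of growth. TGI: total growth inhibition.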

How the values were obtained:
Test in all cases: NCI anticancer screen, dose series, 48 h
HL-60(TB) leukemia = tested on: HL-60(TB) leukemia
NCI-H23 lung = tested on: NCI-H23 lung
OVCAR-8 ovarian = tested on: OVCAR-8 ovarian
SF-268 CNS = tested on: SF-268 CNS
SK-MEL-2 melanoma = tested on: SK-MEL-2 melanoma
A549 NSCLC = tested on: A549 NSCLC
MDA-N = tested on: MDA-N
NCI-H522 lung = tested on: NCI-H522 lung
SR leukemia = tested on: SR leukemia
MDA-MB-231 breast = tested on: MDA-MB-231 breast

Structure (SMILES)	GI50 (HL-60(TB) leukemia) [µM]	TGI (HL-60(TB) leukemia) [µM]	GI50 (NCI-H23 lung) [µM]	TGI (NCI-H23 lung) [µM]	GI50 (OVCAR-8 ovarian) [µM]	TGI (OVCAR-8 ovarian) [µM]	GI50 (SF-268 CNS) [µM]	TGI (SF-268 CNS) [µM]	GI50 (SK-MEL-2 melanoma) [µM]	TGI (SK-MEL-2 melanoma) [µM]	TGI (A549 NSCLC) [µM]	TGI (MDA-N) [µM]	TGI (NCI-H522 lung) [µM]	TGI (SR leukemia) [µM]	TGI (MDA-MB-231 breast) [µM]	GI50 (A549 NSCLC) [µM]	GI50 (NCI-H522 lung) [µM]
C[PH+](c1nc2ccccc2nc1[PH+](C)C(C)(C)C)C(C)(C)C.C[PH+](c1nc2ccccc2nc1[PH+](C)C(C)(C)C)C(C)(C)C.[Au+].[Cl-] (stereo unspecified)	0.07	1.02	0.0261	0.104	0.0358	1.88	0.0384	1.35	0.0318	0.0986							
CCN(CCCl)c1cccc(NC(=O)c2ccc(C(=O)Nc3cccc(CN(C)C)c3)cc2)c1		12.7		1.15		1.35		4.87		0.0856	12.2	0.286	0.0342	27.3			
C=CCCCCn1c2ccccc2c2c(C)c3cnccc3c(C)c21		4.92		32.8		21.2		77.8		47.3	32.2		18				
N#Cc1c(N2CCN(c3ccc([N+](=O)[O-])cc3)CC2)[n+](=O)c2ccc(-c3ccc([N+](=O)[O-])cc3)cc2n1[O-]				> 100		> 100		> 100		> 100	> 100	> 100	> 100		> 48.6		
O=NN1CCCS1(=O)=O		> 100		> 100		> 100		> 100			> 100			> 100	> 100		
COc1cc2c(c(OC)c1)C(=O)O[C@H](C)CCCC/C=C/C2		4.45		> 100		> 100				31.1	> 100	26.4	24	> 100	> 31.9		
COc1cc2oc(-c3ccc4c(c3)OCO4)c(OC)c(=O)c2c(O)c1OC		> 50		> 50		> 50		> 50		> 50	> 50	> 50	> 50		> 50		
C[C@]12CCC(=O)C=C1CC[C@@H]1[C@@H]2[C@@H](O)C[C@@]2(C)[C@H]1CC[C@]2(O)C(=O)COC(=O)CCC1CCCC1		> 100		> 100		> 100		> 100			> 100		> 100	> 100			
COC(=O)[C@@H]1C=C[C@H](NC(C)=O)C1				> 100		> 100				> 100		> 100		> 100	> 100		
COc1cc2oc(=O)cc(C)c2cc1OC				> 100		> 100		> 100		> 100	> 100	> 100		> 100	> 100		
N#C/C(=C1/c2cc([N+](=O)[O-])ccc2-c2c1cc([N+](=O)[O-])cc2[N+](=O)[O-])N1CCCCC1				> 100		> 100		> 100		> 100	> 100	> 100	> 100	4.44	> 100		
O=c1c2cc(Br)ccc2ncn1COCc1ccccc1						> 1				> 100	> 100			> 100			
Nn1c(Sc2nc3ccccc3c(=O)n2N)nc2ccccc2c1=O				5.43		11.1		22.3		14.3	39	15.5	3.57	5.1	24.4		
CC(C)(C)C(=O)N1CCN(C=O)C1=S		> 100		> 100		> 100		> 100		> 100	> 100		> 100		> 100		
NC1c2c(Cl)sc(Cl)c2C(=O)C1O (stereo unspecified)		30.1		32.5		51.8		> 100		> 100	> 100	> 100	41.6		> 100		
CC(=Nc1cc(Cl)cc(Cl)c1)c1ccncc1				> 100		> 100		> 100		> 100	> 100	> 100	> 100		> 100		
CC1=CC[C@](C)(O)[C@@]2(C)CC[C@H]3C(=C(C)C)C(=O)C[C@]3(C)C[C@H]12		16.4		> 50		> 50		> 50		> 50	> 50		31.5	40.6	> 50		
Cc1c(C#N)c(=N)oc2ccccc12		> 100		> 100		> 100		> 100		> 100	> 100	> 100			> 100		
COC(=O)c1cc(C)ccc1C1CN=NC12Cc1c(C)cc(C)cc1C2=O (stereo unspecified)		29.3		50.4		> 100		98.9		33.1	> 100	42	34.5		65.7		
Cn1ccc2c(c1=O)C(=O)OC2(C)C		> 100		> 100		> 100		> 100			> 100	> 100		> 100	> 100		
O=c1nc2ccc3sc4ccccc4c(=O)c3n2c(=O)[nH]1		> 100		> 100		> 100		> 100			> 100	> 100	> 100	> 100	> 100		
NC(=S)NNC(=S)NC(=O)c1ccco1		> 10		> 10		> 10		> 10		> 10	> 10	> 10		> 10	> 10		
CCOC(=O)CCC(NC(=O)OCc1ccccc1)C(=O)NC(CCC(=O)OCC)C(=O)NC(CCC(=O)OCC)C(=O)NNC(=O)OC(C)(C)C (stereo unspecified)		> 100		> 100		> 100				> 100	> 100	> 100		> 100	> 100		
CS(=O)(=O)[O-].CS(=O)(=O)[O-].NC1CCCCC1N.[Pt+4] (stereo unspecified)	33.5	> 93.5	88	> 100	> 74	> 100	> 65.9	> 100	> 100	> 100	> 100		> 100			80.3	> 71.1
